Source: patent US8530680B2, “System and method for controlling growth of microorganisms with brominated furanones” (Syracuse University, priority 2008, dated 2013)
Entries after “also recorded” stand apart in the source; their conditions may differ.

Experiments:
[1] = tested on: Chaetomium globosum CG572; experiment: Fungal growth on MEA plates with furanone; assay type: cell-based; parameters: key to growth on plate, CG572: −: No growth was observed; +: normal growth was seen; settings: for growth on plate, CG572: 60 μg/mL, 7 days at 30° C.; for growth inhibition test, inhibitory concentration, CG572: tested at 1, 5, 30, 60 μg/mL, 7 days
Procedure: (§1) This Example examines the effect of brominated furanones on the growth of fungi associated with damage to building material. Six fungal strains were the subject of these experiments; Gloeophyllum trabeum (strains GT598 and GT599), Chaetomium globosum (wildtype strain and CG572), and Trametes versicolor (strains TV7B2-59 and TV57MAD277). The species were developed on 2% Malt-Extract Agar (MEA) plates and stored inverted at 4° C. The stocks were refreshed by streaking new plates every two months.
(§2) The brominated and non-brominated furanones were added to MAE agar plates at different concentrations. The brominated furanones were dissolved in either ethanol (“EtOH”) or methanol (“MeOH”) as stock solutions, as shown in Table 5. The non-brominated furanones were purchased from Sigma (St. Louis, Mo.). The furanone stocks were stored at 4° C.
(§3) MAE agar plates containing the same amounts of ethanol/methanol were also prepared as negative controls to eliminate any solvent effects. The plates were prepared using either 90 mm or 60 mm petri dishes and were stored inverted at 4° C. until use.
(§4) Different concentrations of furanones were studied to compare their antifungal activities. The plates were inoculated with the six fungal strains using a platinum loop and were incubated upside down at 30° C. for 7 days to monitor the growth. The initial screening was performed using a single 60 μg/mL furanone concentration.

[2] = tested on: Chaetomium globosum wildtype strain (CG); experiment: Fungal growth on MEA plates with furanone; assay type: cell-based; parameters: key to growth on plate, CG: −: No growth was observed; +: normal growth was seen; settings: for growth on plate, CG: 60 μg/mL, 7 days at 30° C.; for growth inhibition test, inhibitory concentration, CG: tested at 1, 5, 30, 60 μg/mL, 7 days
Procedure: as §1, §2, §3, §4

[3] = tested on: Candida albicans strain SC5341; experiment: C. albicans growth curves in SD medium with furanones (96-well plates, OD600); assay type: cell-based; settings: tested 2.5, 5, 10, 20 μg/mL
Procedure: To evaluate the effects of furanones on fungal growth, C. albicans was grown in a synthetic dextrose (“SD”) medium supplemented with 0, 2.5, 5, 10, or 20 μg/mL of one of eight different brominated furanones and […] furanones (BF1, BF8, BF9, BF11, BF12, BF14, NF1, NF2, or NF3).
The Candida albicans strain SC5341 used in this study was provided by Dr. Sean Palecek from the University of Wisconsin-Madison. C. albicans was routinely grown overnight at 30° C. and shaken at 200 rpm in a SD medium containing 0.67% (wt/vol) yeast nitrogen base without amino acids and 2% (wt/vol) dextrose, which was buffered with 0.165 M morpholinepropanesulfonic acid (MOPS, Sigma), and pH-adjusted to 7.0 with solid NaOH. The overnight culture was then sub-cultured in 25 mL of fresh SD medium to an initial optical density at 600 nm (OD600) of 0.005 and grown till the OD600 reached 1.0. The OD600 values were measured using a Spectronic GENESYS 5 UV-Vis spectrophotometer (Thermo Fisher Scientific®, Waltham, Mass.). This culture was used to inoculate sterile 96-well plates (Costar® No. 9017, Corning®, Corning, N.Y.) containing SD medium supplemented with furanones at different concentrations (0, 2.5, 5, 10, 20 μg/mL) to an OD600 of 0.06 in at least duplicates. The BF1, 8, 9, 11, 12, 14 and NF1-3 compounds were dissolved in ethanol at a concentration of 20 mg/mL. The BF10 compound was dissolved in methanol at a concentration of 20 mg/mL. The amounts of methanol and ethanol were adjusted to be the same for each sample to eliminate the effects of solvents. The samples were then incubated at 30° C. with shaking at 200 rpm, and the OD600 in each well was measured at 0, 4, 7, 17, and 42 hours after inoculation, using an ELx808™ Absorbance Microplate Reader (BioTek Instruments® Inc., Winooski, Vt.).

[4] = tested on: P. aeruginosa strain PAO1 biofilm formation; experiment: Microplate-based biofilm assay (crystal violet, OD540) of P. aeruginosa; assay type: cell-based, Pseudomonas aeruginosa; settings: 24 hours
Procedure: A microplate-based biofilm assay was used to further investigate whether furanones inhibit biofilm formation of P. aeruginosa strain PAO1. For this biofilm assay the strain was grown at 30° C. without shaking in M63 minimal medium containing 13.6 g/L KH2PO4, 2 g/L (NH4)2SO4, 0.5 mg/L FeSO4, 0.12 g/L MgSO4, 5 g/L vitamin free casamino acids and 5 g/L glucose (pH 7.0). The synthesis of the brominated furanones, the structures of which are shown in FIGS. 1A and 1B, was according to Example 1.
The overnight culture of P. aeruginosa was used to inoculate fresh M63 medium supplemented with furanones (0, 30 or 60 μg/mL) to an OD600 of 0.05 in 96-well plates. Four replicates were tested for each condition. The plates were incubated at 30° C. without shaking for 24 hours. The biofilm mass was quantified by following the protocol described previously. Briefly, the planktonic cells were carefully removed by pipetting and the plates with biofilms were washed three times with deionized H2O and dried by gently patting on a piece of paper towel. To quantify biofilms, the plates were stained with 0.1% crystal violet and incubated for 20 minutes at room temperature. The plates were then washed three times with deionized H2O to remove extra dyes. An OD540 was measured to quantify the biofilm on the bottom of each well.

[5] = tested on: P. aeruginosa strain PAO1; experiment: Microplate based planktonic growth assay of P. aeruginosa; assay type: cell-based, Pseudomonas aeruginosa; settings: for reduction of specific growth rate compared to furanone-free control: planktonic growth
Procedure: The antimicrobial activities of furanones on the planktonic growth of P. aeruginosa strain PAO1 was examined using a microplate based growth assay. An overnight culture of the strain grown in LB medium at 30° C. was used to inoculate M63 minimal medium supplemented with furanones at 0, 30 or 60 μg/mL to an optical density at 600 nm (OD600) of 0.05 in 96-well plates. The plates were then incubated at 30° C. with shaking at 200 rpm. The reading of OD600 was measured every 60 minutes for six hours using a microplate reader (ELx808, BioTek Instruments). Six replicates were tested for every sample. The synthesis of the brominated furanones, the structures of which are shown in FIGS. 1A and 1B, was according to Example 1.

E. coli = E. coli growth inhibition (results not shown); assay type: cell-based; settings: at / up to 60 μg/mL

| Structure (SMILES) | growth on plate, CG572 [1] | growth inhibition test, inhibitory concentration, CG572 [1] [µg/mL] | growth on plate, CG [2] | growth inhibition test, inhibitory concentration, CG [2] [µg/mL] | lowest concentration showing growth inhibition [3] [µg/mL] | inhibition of biofilm formation ([4]; 30 μg/mL) | inhibition of biofilm formation ([4]; 60 μg/mL) | inhibitory effect on planktonic growth ([5]; 30 μg/mL) | reduction of specific growth rate compared to furanone-free control ([5]; 60 μg/mL) [%] | inhibition at 30 µg/mL ([4]; Pseudomonas aeruginosa, PAO1, 30 μg/mL, read-out: inhibition of biofilm formation compared to 24-hour biofilm mass of furanone-free control) [%] | inhibition at 60 µg/mL ([4]; Pseudomonas aeruginosa, PAO1, 60 μg/mL, read-out: inhibition of biofilm formation compared to 24-hour biofilm mass of furanone-free control) [%] | growth inhibition of E. coli (E. coli) | inhibitory effect on planktonic growth ([5]; 30 and 60 μg/mL (up to 60 μg/mL)) | reduction of specific growth rate compared to furanone-free control ([5]; 30 μg/mL) [%] |
| --- | --- | --- | --- | --- | --- | --- | --- | --- | --- | --- | --- | --- | --- | --- |
| CCCCC1=C(Br)/C(=C/Br)OC1=O [BF1, 4-bromo-5Z-(bromomethylene)-3-butylfuran-2-one] | − | 30 | − | 30 | 20 |  |  |  |  |  |  |  |  |  |
| O=C1OC(=C(Br)Br)C=C1C(Br)Br [BF10, 3-(dibromomethyl)-5-(dibromomethylene)furan-2-one] | − | 30 | − | 30 | 20 | didn't show apparent inhibition | significantly inhibited; also recorded: inhibited biofilm formation completely | did not exhibit significant inhibitory effects | 10 |  |  |  |  |  |
| CC1=C(Br)/C(=C/Br)OC1=O [BF8, 4-bromo-5Z-(bromomethylene)-3-methylfuran-2-one] | − | 30 | − | 5 | 5 | significantly inhibited | significantly inhibited | did not exhibit significant inhibitory effects |  | 86.1 ± 7.6 | 93.8 ± 3.7 | did not inhibit | did not inhibit; also recorded: no apparent effect |  |
| CC1=CC(=C(Br)Br)OC1=O [BF9, 5-(dibromomethylene)-3-methylfuran-2-one] | − | 60 | − | 5 | 20 | significantly inhibited | significantly inhibited |  | 42.7 |  |  | does not inhibit |  | 29.3 |
